Assay results as given in patent US20230285402A1, “Compositions and Methods of Modulating Short-Chain Dehydrogenase Activity” (BOARD OF REGENTS OF THE UNIVERSITY OF TEXAS SYSTEM, priority 2013, published 2023).

Experiments:
Assay type in all cases: in vivo, mouse
C57BL/6J mice [1] = test: Survival of 11Gy irradiated C57BL/6J mice given marrow allograft, SW033291 5 mg/kg IP bid for 21 days, 3 mice per condition
Text: The experimental design is depicted in FIG. 50.
Under the conditions of the mouse colony during this study, control mice receiving 100,000-500,000 cells are all dead between days 4-13 of study. […] Such activity would be of particular utility in settings, such as transplantation with umbilical cord stem cells, in which donor cell numbers are limited.

mice = test: Homing of CFSE labeled donor bone marrow cells in lethally irradiated mice; conditions: 10 mg/kg IP
Description: Drugs are administered following radiation, following the transplant, and again at 8 hours after the transplant.

C57BL/6J mice [2] = test: Bone marrow of C57BL/6J mice treated IP; conditions: 5 mg/kg or 20 mg/kg IP
Text: Experimental conditions are noted on the figure.

C57BL/6J mice [3] = test: Competitive transplant of marrow from treated CD45.2 donor mice; conditions: donor 5 mg/kg IP daily for 3 doses; weeks 12 and 16
Description: On day 3 mice were sacrificed, marrow flushed and mixed at a 1:1 ratio with vehicle treated CD45.1 marrow. 2 million whole BM cells were injected into the tail vein of lethally irradiated CD45.1 mice and percent chimerism measured via flow cytometry at weeks 8, 12, 16.

FVB mice = test: Liver regeneration after partial hepatectomy, FVB mice, SW033291 5 mg/kg IP bid

CCCC[S+]([O-])c1sc2nc(-c3cccs3)cc(-c3ccccc3)c2c1N (stereo not shown) [SW033291, 2-(butylsulfinyl)-4-phenyl-6-(thiophen-2-yl)thieno[2,3-b]pyridin-3-amine]
Mouse survival (number surviving) (C57BL/6J mice [1]; Day 0, 1 × 10^5 cells): 3 | Mouse survival (number surviving) (C57BL/6J mice [1]; Day 0, 2 × 10^5 cells): 3 | Mouse survival (number surviving) (C57BL/6J mice [1]; Day 0, 5 × 10^5 cells): 3 | Mouse survival (number surviving) (C57BL/6J mice [1]; Day 1, 1 × 10^5 cells): 3 | Mouse survival (number surviving) (C57BL/6J mice [1]; Day 1, 2 × 10^5 cells): 3 | Mouse survival (number surviving) (C57BL/6J mice [1]; Day 1, 5 × 10^5 cells): 3 | Mouse survival (number surviving) (C57BL/6J mice [1]; Day 2, 1 × 10^5 cells): 3 | Mouse survival (number surviving) (C57BL/6J mice [1]; Day 2, 2 × 10^5 cells): 3 | Mouse survival (number surviving) (C57BL/6J mice [1]; Day 2, 5 × 10^5 cells): 3 | Mouse survival (number surviving) (C57BL/6J mice [1]; Day 3, 1 × 10^5 cells): 3 | Mouse survival (number surviving) (C57BL/6J mice [1]; Day 3, 2 × 10^5 cells): 3 | Mouse survival (number surviving) (C57BL/6J mice [1]; Day 3, 5 × 10^5 cells): 3 | Mouse survival (number surviving) (C57BL/6J mice [1]; Day 4, 1 × 10^5 cells): 2 | Mouse survival (number surviving) (C57BL/6J mice [1]; Day 4, 2 × 10^5 cells): 3 | Mouse survival (number surviving) (C57BL/6J mice [1]; Day 4, 5 × 10^5 cells): 3 | Mouse survival (number surviving) (C57BL/6J mice [1]; Day 5, 1 × 10^5 cells): 1 | Mouse survival (number surviving) (C57BL/6J mice [1]; Day 5, 2 × 10^5 cells): 3 | Mouse survival (number surviving) (C57BL/6J mice [1]; Day 5, 5 × 10^5 cells): 3 | Mouse survival (number surviving) (C57BL/6J mice [1]; Day 6, 1 × 10^5 cells): 0 | Mouse survival (number surviving) (C57BL/6J mice [1]; Day 6, 2 × 10^5 cells): 2 | Mouse survival (number surviving) (C57BL/6J mice [1]; Day 6, 5 × 10^5 cells): 3 | Mouse survival (number surviving) (C57BL/6J mice [1]; Day 7, 2 × 10^5 cells): 2 | Mouse survival (number surviving) (C57BL/6J mice [1]; Day 7, 5 × 10^5 cells): 3 | Mouse survival (number surviving) (C57BL/6J mice [1]; Day 8, 2 × 10^5 cells): 2 | Mouse survival (number surviving) (C57BL/6J mice [1]; Day 8, 5 × 10^5 cells): 2 | Mouse survival (number surviving) (C57BL/6J mice [1]; Day 9, 2 × 10^5 cells): 2 | Mouse survival (number surviving) (C57BL/6J mice [1]; Day 9, 5 × 10^5 cells): 2 | Mouse survival (number surviving) (C57BL/6J mice [1]; Day 10, 2 × 10^5 cells): 2 | Mouse survival (number surviving) (C57BL/6J mice [1]; Day 10, 5 × 10^5 cells): 2 | Mouse survival (number surviving) (C57BL/6J mice [1]; Day 11, 2 × 10^5 cells): 2 | Mouse survival (number surviving) (C57BL/6J mice [1]; Day 11, 5 × 10^5 cells): 2 | Mouse survival (number surviving) (C57BL/6J mice [1]; Day 12, 2 × 10^5 cells): 1 | Mouse survival (number surviving) (C57BL/6J mice [1]; Day 12, 5 × 10^5 cells): 2 | Mouse survival (number surviving) (C57BL/6J mice [1]; Day 13, 2 × 10^5 cells): 0 | Mouse survival (number surviving) (C57BL/6J mice [1]; Day 13, 5 × 10^5 cells): 2 | increase of homed cells in recipient bone marrow (mice; FIG. 88): 3 fold | increase of homed cells in recipient bone marrow (mice; FIG. 90): 2 fold | increase of homed donor cells in recipient bone marrow (mice; FIG. 140): approximately 2.5 fold | increase in numbers of hematopoietic colonies (C57BL/6J mice [2]): approximately 30% | percent of Sca1+/c-Kit+ cells in lineage negative (SKL) cells (C57BL/6J mice [2]): unchanged | percent blood chimerism of CD45.2 marked cells (C57BL/6J mice [3]): significantly increased | increase in median S-phase (BrdU positive) cells (FVB mice; post-operative day 2): greater than 2 fold | greater liver weight than control (FVB mice; post-operative day 7, dosing from 1 hour before surgery): approximately 25%
